{"source": "patent US20240174649A1", "about": "“CULLIN-RING E3 UBIQUITIN LIGASE 4 INHIBITOR COMPOUNDS AND METHODS OF THEIR USE” (ICAHN SCHOOL OF MEDICINE AT MOUNT SINAI, priority 2021, published 2024)", "key": {"[1]": {"target": "ROC1-CUL1 (Homo sapiens (Human), UniProt Q13616)", "sequence (Q13616 whole entry)": "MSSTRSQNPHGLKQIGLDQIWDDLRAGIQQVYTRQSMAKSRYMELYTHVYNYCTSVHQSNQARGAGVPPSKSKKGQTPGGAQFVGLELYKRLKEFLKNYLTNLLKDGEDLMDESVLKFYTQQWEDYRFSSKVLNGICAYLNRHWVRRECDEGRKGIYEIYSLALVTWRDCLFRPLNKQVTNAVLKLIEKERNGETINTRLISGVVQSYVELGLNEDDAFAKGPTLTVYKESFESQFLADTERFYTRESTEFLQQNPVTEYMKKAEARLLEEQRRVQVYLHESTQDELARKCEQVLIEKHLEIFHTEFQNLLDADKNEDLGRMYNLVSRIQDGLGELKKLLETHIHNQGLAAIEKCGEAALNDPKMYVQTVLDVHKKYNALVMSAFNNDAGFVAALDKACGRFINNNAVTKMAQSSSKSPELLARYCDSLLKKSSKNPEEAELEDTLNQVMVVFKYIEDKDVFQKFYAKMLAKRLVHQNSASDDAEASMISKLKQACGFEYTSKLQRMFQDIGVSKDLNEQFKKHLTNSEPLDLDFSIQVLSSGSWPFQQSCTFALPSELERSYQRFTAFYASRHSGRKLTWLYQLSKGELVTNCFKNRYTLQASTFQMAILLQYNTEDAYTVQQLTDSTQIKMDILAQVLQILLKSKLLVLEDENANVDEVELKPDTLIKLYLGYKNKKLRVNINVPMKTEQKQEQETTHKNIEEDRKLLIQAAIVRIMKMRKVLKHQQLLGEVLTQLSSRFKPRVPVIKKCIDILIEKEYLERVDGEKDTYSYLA", "sequence (P62877 whole entry partner)": "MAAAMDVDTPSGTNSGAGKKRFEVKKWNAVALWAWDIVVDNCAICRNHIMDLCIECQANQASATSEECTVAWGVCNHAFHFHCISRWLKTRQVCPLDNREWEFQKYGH", "test": "Cullin-32P-Ub elongation assay with ROC1-CUL1", "format": "biochemical", "conditions": "as much as 150 μM"}, "[2]": {"target": "ROC1-CUL4A CTD (Homo sapiens (Human), UniProt Q13619)", "sequence (Q13619 400-759)": "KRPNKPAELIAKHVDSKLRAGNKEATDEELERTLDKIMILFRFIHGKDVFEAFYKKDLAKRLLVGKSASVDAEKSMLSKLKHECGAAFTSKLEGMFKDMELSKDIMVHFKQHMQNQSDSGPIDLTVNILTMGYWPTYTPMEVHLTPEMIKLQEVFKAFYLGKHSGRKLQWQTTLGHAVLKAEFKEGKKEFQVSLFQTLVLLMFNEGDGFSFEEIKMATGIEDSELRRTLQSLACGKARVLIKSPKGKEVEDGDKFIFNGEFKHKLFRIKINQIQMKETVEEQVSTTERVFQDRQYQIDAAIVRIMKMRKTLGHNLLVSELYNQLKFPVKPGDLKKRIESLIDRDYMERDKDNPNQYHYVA", "test": "Ligand binding by Micro-Scale Thermophoresis (MST)", "conditions": "MST", "procedure": "(§1) E3 ligase complex (˜2 nmol) was labeled with fluorescent dye using Monolith NT Protein Labeling Kit Red-NHS (Nanotemper) in the presence of 20 mM MES pH 6.0 and 150 mM NaCl. Excess dye was removed using the included gravity flow column and eluted in storage buffer containing 20 mM Tris-HCl, pH 7.4, 150 mM NaCl, and 10% glycerol. The fluorescent E3 complex (˜0.01-0.06 μM) was mixed with increasing amount of compound in a buffer (20 μl) that contains phosphate-buffered saline, 0.1% TWEEN-20 and 2% prionex. Following incubation at room temperature for 30 min, the reaction mixture loaded into premium coated capillaries and analyzed in the Monolith NT.115 machine (Nanotemper). Thermophoresis was recorded for each sample and binding curve was generated and Kd was calculated using the included software. For reactions where significant ligand specific fluorescence quenching occurred (verified by manufacturer's SDS Denaturation-test protocol), the initial fluorescence quenching data was used directly to calculate the binding curve and Kd."}, "[3]": {"test_system": "ROC1-CUL4A CTD", "test": "Ligand binding by Micro-Scale Thermophoresis (MST)", "parameters": "species or system human", "conditions": "ratio of Kd", "procedure": "as §1"}, "[4]": {"target": "Nedd8-ROC1-CUL1 (Homo sapiens (Human), UniProt Q13616)", "sequence (Q13616 whole entry)": "as the sequence (Q13616 whole entry) above", "sequence (P62877 whole entry partner)": "as the sequence (P62877 whole entry partner) above", "sequence (Q15843 1-76 partner)": "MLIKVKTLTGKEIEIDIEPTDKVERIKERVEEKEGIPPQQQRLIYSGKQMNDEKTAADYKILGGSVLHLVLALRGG", "test": "Ub chain assembly measured by Coomassie stain", "format": "biochemical", "procedure": "(§2) Reaction mixture contained 2 mM ATP, 10 mM MgCl2, 0.01 μg/μl of GST-E1 (Ub), 0.01 μg/μl of Cdc34, 0.1 μg/μl of Nedd8-ROC1-CUL1 or Nedd8-ROC1-CUL4A, and 1 μg/μl of Ub. Where indicated, DMSO and compound were added. The reaction was incubated at 37° C. for 60 min. Following separation of reaction products by SDS-PAGE, proteins were visualized by Coomassie stain."}, "[5]": {"target": "Nedd8-ROC1-CUL4A (Homo sapiens (Human), UniProt Q13619)", "sequence (Q13619 39-759 limits assumed)": "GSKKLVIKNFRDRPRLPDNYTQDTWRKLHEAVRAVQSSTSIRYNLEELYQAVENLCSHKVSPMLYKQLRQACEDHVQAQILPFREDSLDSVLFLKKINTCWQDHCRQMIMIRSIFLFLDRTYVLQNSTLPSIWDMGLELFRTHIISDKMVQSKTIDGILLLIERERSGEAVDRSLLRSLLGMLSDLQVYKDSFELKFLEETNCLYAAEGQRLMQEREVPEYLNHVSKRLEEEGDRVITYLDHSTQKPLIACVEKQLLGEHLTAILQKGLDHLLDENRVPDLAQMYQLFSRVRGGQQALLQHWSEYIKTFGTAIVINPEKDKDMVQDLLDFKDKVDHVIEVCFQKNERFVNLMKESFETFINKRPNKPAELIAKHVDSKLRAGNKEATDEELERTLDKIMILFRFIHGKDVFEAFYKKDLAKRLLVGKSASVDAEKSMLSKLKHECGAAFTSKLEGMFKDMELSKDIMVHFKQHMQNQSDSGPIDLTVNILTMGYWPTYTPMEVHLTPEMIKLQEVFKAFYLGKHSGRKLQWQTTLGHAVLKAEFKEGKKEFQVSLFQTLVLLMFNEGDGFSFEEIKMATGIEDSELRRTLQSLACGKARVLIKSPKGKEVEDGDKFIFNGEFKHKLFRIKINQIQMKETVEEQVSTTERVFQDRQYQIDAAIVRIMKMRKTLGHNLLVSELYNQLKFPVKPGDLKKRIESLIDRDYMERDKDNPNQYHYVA", "sequence (P62877 15-108 partner limits assumed)": "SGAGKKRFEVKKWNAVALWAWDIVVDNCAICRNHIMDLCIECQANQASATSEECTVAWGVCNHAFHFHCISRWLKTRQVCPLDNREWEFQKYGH", "sequence (Q15843 1-76 partner limits assumed)": "as the sequence (Q15843 1-76 partner) above", "test": "Ub chain assembly measured by Coomassie stain", "format": "biochemical", "conditions": "10 μM", "procedure": "as §2"}, "[6]": {"test_system": "H1299", "test": "Apoptosis, Annexin V flow cytometry", "format": "cell-based", "conditions": "Homo sapiens, NCI-H1299; H1299, Lung", "in_short": "(§3)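 5×10^4 cells were seeded 24 h before treatment, then cultured with compound for 48 h. Pelleted cells were washed in Annexin V binding buffer (HEPES pH 7.4, with CaCl2) and stained in the dark with Annexin V-FITC (2 μg/ml) for 5 min. Apoptosis was read by flow cytometry.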"}, "[7]": {"test_system": "HCT116", "test": "Apoptosis, Annexin V flow cytometry", "format": "cell-based", "conditions": "Homo sapiens, HCT-116; HCT116, Colon", "in_short": "as §3"}, "[8]": {"test_system": "K562", "test": "Apoptosis, Annexin V flow cytometry", "format": "cell-based", "conditions": "Homo sapiens; K562, CML", "in_short": "as §3"}, "[9]": {"test_system": "MDA-MB-231", "test": "Apoptosis, Annexin V flow cytometry", "format": "cell-based", "conditions": "Homo sapiens; MDA-MB-231, Breast", "in_short": "as §3"}, "[10]": {"test_system": "ML-2", "test": "Apoptosis, Annexin V flow cytometry", "format": "cell-based", "conditions": "Homo sapiens; ML-2, AML", "in_short": "as §3"}, "[11]": {"test_system": "MOLT-4", "test": "Apoptosis, Annexin V flow cytometry", "format": "cell-based", "conditions": "Homo sapiens; MOLT-4, ALL", "in_short": "as §3"}, "[12]": {"test_system": "MV4-11", "test": "Apoptosis, Annexin V flow cytometry", "format": "cell-based", "conditions": "Homo sapiens; MV4-11, AML", "in_short": "as §3"}, "[13]": {"test_system": "NB-4", "test": "Apoptosis, Annexin V flow cytometry", "format": "cell-based", "conditions": "Homo sapiens; NB-4, AML", "in_short": "as §3"}, "[14]": {"test_system": "THP-1", "test": "Apoptosis, Annexin V flow cytometry", "format": "cell-based", "conditions": "Homo sapiens, THP-1, THP-1, AML", "in_short": "as §3"}, "[15]": {"test_system": "U2OS", "test": "Apoptosis, Annexin V flow cytometry", "format": "cell-based", "conditions": "Homo sapiens, Bone", "in_short": "as §3"}, "[16]": {"test": "Plasma stability", "format": "in vitro ADME", "conditions": "Human", "procedure": "(§4) ADME studies on compounds #33-11 and KH-4-43 for “absorption, distribution, metabolism, and excretion” were carried out at CRO, BioDuro. Kinetic solubility, plasma and microsome stability in rat, mouse and human, as well as Caco-2 Permeability were examined."}, "[17]": {"target": "E3 (CUL1) (Homo sapiens (Human), UniProt Q13616)", "sequence (Q13616 whole entry)": "as the sequence (Q13616 whole entry) above", "sequence (P62877 whole entry partner)": "as the sequence (P62877 whole entry partner) above", "test": "E3 (CUL1) inhibition (Table 1)", "format": "biochemical", "procedure": "The reaction mixture (15 μl) was assembled onto a 384-well microtiter plate. […] ATP (0.66 mM) was then added to the mix followed by a brief centrifugation to settle down the mixture. The resulting plate was incubated at 30° C. in the Synergy-H1 reader and the fluorescence signal was monitored. Ubiquitination was quantified based on the ratio of acceptor:donor fluorescence (excitation 515 nm; donor emission 570 nm, acceptor emission 670 nm)."}, "[18]": {"test_system": "tumor cell lines", "test": "Cytotoxicity in a subset of tumor cell lines", "format": "cell-based", "procedure": "Cells (5×10^4) were seeded 24 hours before compound treatment. Compound was added to the culture media and cells were cultured with the compound for 48 hours. The treated cells were then transferred into 5 ml flow cytometry tubes and the well was washed once with PBS to collect any remaining cells. The cells were then pelleted at 500×g for 5 min with a Beckman CS-6KR centrifuge at 4° C. After removal of supernatant, the cells pellet was washed with Annexin V binding buffer (10 mM Hepes-NaOH, pH 7.4, 150 mM NaCl, 5 mM KCl, 1 mM MgCl2, and 1.8 mM CaCl2). Cells were pelleted once again and incubated in the dark with Annexin V-FITC (2 μg/ml) in binding buffer for 5 min then analyzed using LSRFortessa flow cytometer (BD).\nFor cell viability assay, 10,000 cells (per well) were seeded in 96 well plates in 100 microliters of media and incubated overnight. Serial dilutions of compounds tested were then added to wells in triplicate. The cells were incubated for an additional 48 hours. […] The luminescence of each well was then read using a Synergy multi-mode plate reader (BioTek). For determining relative luminescence, the background (average reading of wells containing only media and CellTiter-Glo reagent, no cells) was first subtracted from the reading of each sample. […] Then EC50 was determined using the four parameter logistics regression standard curve."}, "[19]": {"test": "In vitro stability in mouse, rat and human microsomes", "format": "in vitro ADME", "procedure": "as §4"}, "[20]": {"target": "CRL1/SCF (Homo sapiens, UniProt Q13616)"}}}
{"smiles": "O=c1c(-c2cnn(-c3ccccc3)c2)c(C(F)(F)F)oc2c(O)c(O)ccc12", "note": "[#33-11, 7,8-dihydroxy-3-(1-phenyl-1H-pyrazol-4-yl)-2-(trifluoromethyl)-4H-chromen-4-one]", "values": [{"measurement": "effect on levels of CUL1-32P-Ub", "setting": "[1]", "result": "little effects"}, {"measurement": "Kd", "setting": "[2]", "result": 0.223, "unit": "µM"}, {"measurement": "binding to ROC1-CUL4A CTD more effectively than ROC1-CUL1 CTD", "setting": "[3]", "result": "~20", "unit": "fold"}, {"measurement": "effect on Ub chain assembly", "setting": "[4]; 1 mM", "result": "blocked the utilization of Ub"}, {"measurement": "effect on Ub chain assembly", "setting": "[4]; 10 or 100 μM", "result": "little effect"}, {"measurement": "effect on Ub chain assembly", "setting": "[5]", "result": "block the utilization of free Ub"}, {"measurement": "EC50", "setting": "[6]", "result": "~81", "unit": "µM"}, {"measurement": "EC50", "setting": "[7]", "result": "~58", "unit": "µM"}, {"measurement": "EC50", "setting": "[8]", "result": "~54", "unit": "µM"}, {"measurement": "EC50", "setting": "[9]", "result": "> 100", "unit": "µM"}, {"measurement": "EC50", "setting": "[10]", "result": "~14", "unit": "µM"}, {"measurement": "EC50", "setting": "[11]", "result": "~5", "unit": "µM"}, {"measurement": "EC50", "setting": "[12]", "result": "~13", "unit": "µM"}, {"measurement": "EC50", "setting": "[13]", "result": "~7", "unit": "µM"}, {"measurement": "EC50", "setting": "[14]", "result": 14, "unit": "µM"}, {"measurement": "EC50", "setting": "[15]", "result": "~78", "unit": "µM"}, {"measurement": "Plasma Stability: t1/2", "setting": "[16]", "result": ">8.33", "unit": "h"}]}
{"smiles": "O=c1c(-c2cnn(-c3ccc(Cl)cc3)c2)c(C(F)(F)F)oc2c(O)c(O)ccc12", "note": "[KH-4-43, 3-(1-(4-chlorophenyl)-1H-pyrazol-4-yl)-7,8-dihydroxy-2-(trifluoromethyl)-4H-chromen-4-one]", "values": [{"measurement": "EC50", "setting": "[17]", "result": 7, "unit": "µM"}, {"measurement": "EC50", "setting": "[18]", "result": "~2", "unit": "µM"}, {"measurement": "half-life", "setting": "[19]", "result": "> 5", "unit": "h"}, {"measurement": "dose range inhibiting ubiquitination by CRL1/SCF", "setting": "[20]", "result": "~30", "unit": "µM"}]}
